Key:
HMGB1 [1] = experiment: LPS-induced HMGB1 release in primary human peripheral blood mononuclear cells; type: cell-based; conditions: FIG. 2B
Procedure: (§1) Cell culture. Murine macrophage-like RAW 264.7 cells were obtained from the American Type Culture Collection (ATCC, Rockville, Md.), and primary peritoneal macrophages were isolated from Balb/C mice (male, 7-8 weeks, 20-25 grams) at 2-3 days after intraperitoneal injection of 2 ml thioglycollate broth (4%) as previously described (Chen et al. 2004; Rendon-Mitchell et al. 2003). Murine macrophages were pre-cultured in RPMI 1640 medium (Gibco BRL, Grand Island, N.Y.) supplemented with 10% fetal bovine serum (FBS) and 2 mmol/L glutamine. […]
(§2) LPS stimulation. […] At 16 hours after LPS stimulation, levels of HMGB1 in the culture medium were determined as previously described (Chen et al. 2004; Rendon-Mitchell et al. 2003; Wang et al. 1999).
(§3) HMGB1 western blotting analysis. The levels of HMGB1 in the culture medium or serum were determined by western blotting analysis as previously described (Chen et al. 2004; Rendon-Mitchell et al. 2003; Wang et al. 1999). The relative band intensity was quantified using NIH image 1.59 software to determine HMGB1 levels with reference to standard curves generated with purified HMGB1.

HMGB1 [2] = experiment: LPS-induced HMGB1 release in murine peritoneal macrophages; type: cell-based; conditions: data not shown
Procedure: as §1, §2, §3

nitric oxide = experiment: LPS-induced nitric oxide release (Griess reaction); type: cell-based, murine; conditions: 100 μM, FIG. 2A lower panel
Procedure: LPS stimulation. Adherent macrophages or monocytes were gently washed with, and cultured in, serum-free OPTI-MEM I medium two hours before stimulation with bacterial endotoxin (lipopolysaccharide, LPS, E. coli 0111:B4, Sigma-Aldrich). At 16 hours after LPS stimulation, levels of HMGB1 in the culture medium were determined as previously described (Chen et al. 2004; Rendon-Mitchell et al. 2003; Wang et al. 1999).
Nitric oxide assay. The levels of nitric oxide in the culture medium were determined indirectly by measuring NO^2− production with a colorimetric assay based on the Griess reaction (Rendon-Mitchell et al. 2003). NO2-concentrations were determined with reference to a standard curve generated with sodium nitrite at various dilutions.

TNF [3] = experiment: LPS-induced TNF release in human peripheral blood mononuclear cells (ELISA); type: cell-based; conditions: 100 μM, FIG. 2B lower panel
Procedure: as §1, §2
TNF ELISA. The levels of TNF in the culture medium or serum were determined using commercial enzyme linked immunosorbent assay (ELISA) kits (Catalog no. MTA00, R & D Systems, Minneapolis, Minn.) with reference to standard curves of purified recombinant TNF at various dilutions as previously described (Chen et al. 2004; Rendon-Mitchell et al. 2003; Wang et al. 2006).

TNF [4] = experiment: LPS-mediated TNF secretion in RAW 264.7 macrophages (ELISA); type: cell-based, murine; conditions: macrophages stimulated with LPS >200 ng/ml
Procedure: Cell culture. Murine macrophage-like RAW 264.7 cells were obtained from the American Type Culture Collection (ATCC, Rockville, Md.), and primary peritoneal macrophages were isolated from Balb/C mice (male, 7-8 weeks, 20-25 grams) at 2-3 days after intraperitoneal injection of 2 ml thioglycollate broth (4%) as previously described (Chen et al. 2004; Rendon-Mitchell et al. 2003). Murine macrophages were pre-cultured in RPMI 1640 medium (Gibco BRL, Grand Island, N.Y.) supplemented with 10% fetal bovine serum (FBS) and 2 mmol/L glutamine. Human peripheral blood mononuclear cells (HuPBMCs) were isolated from the blood of healthy donors (Long Island Blood Bank, Melville, N.Y.) by density gradient centrifugation through Ficoll (Ficoll-Paque PLUS, Pharmacia, Piscataway, N.J.), and cultured in RPMI 1640 supplemented with 10% heat-inactivated human serum/0.2 mM L-glutamine as previously described (Rendon-Mitchell et al. 2003). LPS stimulation. […] The levels of TNF in the culture medium or serum were determined using commercial enzyme linked immunosorbent assay (ELISA) kits (Catalog no. MTA00, R & D Systems, Minneapolis, Minn.) with reference to standard curves of purified recombinant TNF at various dilutions as previously described (Chen et al. 2004; Rendon-Mitchell et al. 2003; Wang et al. 2006).

lethal endotoxemia = experiment: Lethal endotoxemia in Balb/C mice (LPS 15 mg/kg i.p.); type: in vivo
Procedure: Animal models of endotoxemia and sepsis. This study was approved and performed in accordance with the guidelines for the care and use of laboratory animals at the Feinstein Institute for Medical Research, Manhasset, N.Y. Endotoxemia was induced in Balb/C mice (male, 7-8 weeks) by intraperitoneal injection of bacterial endotoxin (LPS, 15 mg/kg) as previously described (Chen et al. 2005; Wang et al. 1999; Wang et al. 2006). Sepsis was induced in male Balb/C mice (7-8 weeks, 20-25 g) or Sprague-Dawley rats (290-310 g) by cecal ligation and puncture (CLP) as previously described (Wang et al. 2006; Yang et al. 2002b). Herbal components were administered intraperitoneally into mice at indicated doses and time points, and mice were monitored for survival for up to two weeks. In parallel experiments, mice were euthanized to collect blood at 28 h (following two doses of herbal components at −0.5 and +24 h) after endotoxemia, and at 52 h (following two doses of herbal components at +24 and +48 h) after CLP.
as §3

HMGB1 [5] = experiment: HMGB1-induced release of TNF and nitric oxide in murine macrophage cultures; type: cell-based; conditions: concentrations up to 100 μM, preliminary data

SMILES: Cc1c(S(=O)(=O)[O-])oc2c1C(=O)C(=O)c1c-2ccc2c1CCCC2(C)C.[Na+] [TSNIIA-SS, tanshinone IIA sodium sulfonate]
- effect on LPS-induced HMGB1 release (HMGB1 [1]): effectively inhibited
- effect on LPS-induced HMGB1 release (HMGB1 [2]): effectively inhibited
- effect on LPS-induced release of nitric oxide (nitric oxide): did not completely block
- effect on LPS-induced release of TNF (TNF [3]): did not completely block
- inhibitory effects on TNF release at higher LPS (TNF [4]): often lost
- circulating HMGB1 levels, endotoxemia (lethal endotoxemia; LPS+vehicle 140±20 ng/ml, n=10, p<0.01): 40 ± 25 ng/mL
- animal survival, lethal endotoxemia (lethal endotoxemia; repeated doses (+0.5, +24, +48, 72 hr), dose-dependent, control 20%, FIG. 6A): 80%
- animal survival rate, lethal endotoxemia (lethal endotoxemia; single dose 15 mg/kg 30 minutes after LPS, saline control 25%, P>0.05): 37.5%
- attenuation of HMGB1-induced release of TNF (HMGB1 [5]): 50-60%
- attenuation of HMGB1-induced release of nitric oxide (HMGB1 [5]): 90-95%

Reference: patent US8513227B2, “Inhibition of inflammatory cytokine production with tanshinones” (The Feinstein Institute for Medical Research, priority 2006, dated 2013)
